Results: the PolyMetriX glass transition set
± gives the standard deviation of the reports.

Key:
[1] = not given; remark: listed apart in the source
[2] = not given; remark: listed apart in the source
[3] = not given; remark: listed apart in the source

glass transition temperature [3] [°C] | Compound | further results
228.00 | *c1ccc2c(c1)C(=O)N(c1ccc(OCC(F)(F)C(F)(F)C(F)(F)C(F)(F)C(F)(F)C(F)(F)F)c(N3C(=O)c4ccc(C(*)(C(F)(F)F)C(F)(F)F)cc4C3=O)c1)C2=O (repeat unit) | –
245.00 ± 1.5 | *c1ccc2c(c1)C(=O)N(c1cccc(Oc3cccc(N4C(=O)c5cccc(*)c5C4=O)c3)c1)C2=O (repeat unit) | –
329.00 | *c1ccc2c(c1)C(=O)N(c1ccc(-c3ccc(N4C(=O)c5ccc(C(*)(C(F)(F)F)C(F)(F)F)cc5C4=O)cc3Br)c(Br)c1)C2=O (repeat unit) | –
420.00 | *c1ccc(-c2ccc(N3C(=O)c4cc5c(cc4C3=O)C(C(F)(F)F)(C(F)(F)F)c3cc4c(cc3O5)C(=O)N(*)C4=O)cc2C(F)(F)F)c(C(F)(F)F)c1 (repeat unit) | –
263.00 | *Oc1cccc2c1C(=O)N(c1ccc(Oc3ccc(Oc4cccc(N5C(=O)c6cccc(*)c6C5=O)c4)cc3)cc1)C2=O (repeat unit) | –
289.00 | *C(=O)c1ccc2c(c1)C(=O)N(c1ccccc1Oc1ccccc1N1C(=O)c3ccc(*)cc3C1=O)C2=O (repeat unit) | –
256.00 | *Oc1ccc(Oc2ccc3c(c2)C(=O)N(c2ccc(Oc4ccc5ccccc5c4-c4c(Oc5ccc(N6C(=O)c7ccc(*)cc7C6=O)cc5C(F)(F)F)ccc5ccccc45)c(C(F)(F)F)c2)C3=O)cc1 (repeat unit) | –
240.00 | *Oc1ccc2c(c1)C(=O)N(c1ccc(Oc3ccc(Oc4ccc(N5C(=O)c6ccc(*)cc6C5=O)cc4)cc3C(C)(C)C)cc1)C2=O (repeat unit) | –

More lines, now with the values behind:

Compound | glass transition temperature [3] [°C] | further results
*c1nc(C(F)(F)C(F)(F)OC(F)(F)F)nc(C(F)(F)C(F)(F)C(F)(F)C(*)(F)F)n1 (repeat unit) [Perfluoropolymer 2 ] | – | glass transition temperature: -18.6 ± 0.7 °C
*CC=C(C*)CCC (repeat unit) [Poly(2-n-propyl-1 ,4-butadiene) ] | – | glass transition temperature: -77.6 ± 0.7 °C
*c1ccc2c3ccc(-c4sc(-c5ccc(-c6cc(CCCCCC)c(*)s6)c6nsnc56)cc4CCCCCC)cc3n(C(CCCCCCCC)CCCCCCCC)c2c1 (repeat unit) | – | glass transition temperature [1]: 74.00 °C
*CC(*)C(=O)NCCCCCCCC (repeat unit) [Poly(N-octyl acrylamide)] | – | glass transition temperature [2]: -53 °C
*CC(*)C(=O)OCC#N (repeat unit) [Poly(cyanomethyl acrylate)] | – | glass transition temperature [2]: 23 °C
*CC(*)C(=O)CC (repeat unit) [Poly(vinyl ethyl ketone)] | – | glass transition temperature [2]: -60 °C
*c1ccc(-c2ccc(OCCCC)c(-c3cc(*)ccc3OCCCC)c2)cc1 (repeat unit) | – | glass transition temperature [1]: 164.00 °C
*C=Cc1cc(OC)c(*)cc1OCCC(C)CCCC(C)C (repeat unit) | – | glass transition temperature [1]: 50.00 °C
*Oc1cccc(Sc2ccc(Oc3ccc4c(c3)C(=O)N(c3ccc(Oc5cccc(Oc6ccc(N7C(=O)c8ccc(*)cc8C7=O)cc6)c5)cc3)C4=O)cc2)c1 (repeat unit) | 219.00 | –
*C=Cc1cc(OC)c(*)cc1OCC(CC)CCCC (repeat unit) | – | glass transition temperature [1]: 66.00 °C
*c1ccc(-c2ccc(OCCCCCCCCCC)c(-c3cc(*)ccc3OCCCCCCCCCC)c2)cc1 (repeat unit) | – | glass transition temperature [1]: 58.00 °C
*c1cccc2c1C(=O)N(c1ccc(C3(c4ccc(N5C(=O)c6cccc(*)c6C5=O)c(C)c4)CCCCC3)cc1C)C2=O (repeat unit) | 302.50 ± 3.5 | –
*C(=O)c1ccc2c(c1)C(=O)N(c1cccc(Oc3ccc(P(=O)(c4ccccc4)c4ccc(Oc5ccc(N6C(=O)c7ccc(*)cc7C6=O)cc5)cc4)cc3)c1)C2=O (repeat unit) | 232.00 | –
*c1ccc2c(c1)C(=O)N(c1ccc(P(=O)(c3ccccc3)c3ccc(N4C(=O)c5ccc(C(*)(C(F)(F)F)C(F)(F)F)cc5C4=O)cc3)cc1)C2=O (repeat unit) | 345.00 | –
*c1ccc2c(c1)C(CCCCCCCC)(CCCCCCCC)c1cc(-c3ccc(-c4ccc(-c5ccc(*)s5)c5cc(-c6ccccc6)c(-c6ccccc6)nc45)s3)ccc1-2 (repeat unit) | – | glass transition temperature [1]: 142.00 °C
*C(=O)c1ccc2c(c1)C(=O)N(c1cc(N3C(=O)c4ccc(*)cc4C3=O)ccc1OCC(F)(F)C(F)(F)C(F)(F)F)C2=O (repeat unit) | 262.00 | –
*CC(*)Br (repeat unit) [Poly(vinyl bromide)] | – | glass transition temperature [2]: 100 °C
*Oc1ccc2c(c1)C(=O)N(c1ccc(P(=O)(c3ccccc3)c3ccc(N4C(=O)c5ccc(*)cc5C4=O)cc3)cc1)C2=O (repeat unit) | 311.00 | –
*Sc1cccc2c1C(=O)N(c1ccc(N3C(=O)c4cccc(*)c4C3=O)cc1)C2=O (repeat unit) | 330.00 | –
